# Reference: patent publication US12296009B2, “Immunogenic composition for the treatment of cancer” (APGEN THERAPUETICS AB, priority 2017, dated 2025)
# Experiments:
# HLA class I = HLA class I expression on tumor cells by flow cytometry; type: cell-based, human; conditions: for HLA class I induction by IFNγ in combination with BETi: increasing BETi concentrations with a standard concentration of IFNγ (FIG. 5)
# Protocol: (§1) Flow cytometry was done after staining with the following antibodies: anti-human HLA-ABC APC-Cy7 (clone W6/32; Biolegend, San Diego, CA, USA), CD274 BV786 (clone MIH1; BD Biosciences, Franklin lakes, NJ, USA). All data were acquired on a Novocyte 2000 [?] flow cytometer (Acea Biosciences, San Diego, CA, USA) were analyzed using FlowJo software version 10 (Treestar).
# (§2) We show herein that treating patient-derived early-passage melanoma cell lines with JQ1 enhances recognition by autologous TIL. […] Along with this, PD-L1 and HLA class I expression were assessed by flow cytometry in pretreated tumor cells to find out whether functional observations in the tumor-TIL co-cultures would be associated with changes in PD-L1 expression or HLA class I expression, both markers being key determinants of T-cell activation upon target cell recognition.
# ANRU tumor cells = test: Co-culture of pretreated ANRU tumor cells with autologous TIL, IFNγ ELISA on supernatant; type: cell-based, human; conditions: for Time kinetics of sensitization for recognition by TIL: ANRU pretreated 12, 24, 48 and 72 hours; for Time kinetics of sensitization for recognition by TIL / T-cell recognition by autologous TIL (IFNγ production in co-culture): 24 hours co-culture
# Protocol: Tumor cells were also co-cultured with unsorted TIL, and TIL without specificity for the aforementioned tumor antigens (designated ‘neg’).
# (§3) Cells were subsequently trypsinized, washed and co-cultured for 24 hours with autologous tumor-infiltrating lymphocytes (TIL). Co-culture supernatants were assessed by ELISA for IFNγ levels, as a measure for tumor recognition by the TIL.
# (§4) The early-passage melanoma cell lines ANRU, ROAL and KADA were established from patients at the oncology clinic at Karolinska University Hospital (ethical permit: #2011/143-32/1) based on a published protocol.21 Mycoplasma-free (MycoAlert kit) cell lines were in their 15th to 45th passage when used in this study.
# (§5) Culture and expansion of tumor-infiltrating lymphocytes was done as published before.^4 A piece of the tumor (approximately 0.5 cm3) was minced into 1 mm3 pieces. Each piece was placed in one well of a 24-well plate containing 1 mL/well CellGro medium supplemented with 2% autologous plasma (generated by centrifugation and heat-inactivation of plasma collected on the day of surgery) and 6,000 IU/mL IL-2 (Proleukin, Novartis, Basel, Switzerland). On day 1 of culture, half of the medium volume in each well was replaced with fresh medium supplemented with plasma and IL-2. After 3-4 days of culture, lymphocytes could usually be seen emerging from the tumor piece. Cultures were monitored regularly and split before reaching confluence. After approximately 2 weeks, expanding wells were pooled and counted. To generate large T cell numbers, TIL were cultured for approximately 14 days in presence of autologous, irradiated feeders (40 Gy, TIL:feeder ratio 1:50-1:80) with 300 IU/mL IL-2 and 30 ng/mL anti-CD3 antibody (OKT3, Cilag, Zug, Switzerland). Cells were split or medium exchanged as necessary. Cultures were initiated in standing T75 flasks, but transferred to VueLife cell culture bags 1 week before harvest. At the end of culture, cells were harvested, pooled, characterized, counted and frozen.
# as §2
# To test this, we co-cultured ANRU tumor cells for 24 hours with autologous TIL in the presence and absence of a PD-L1 blocking antibody. Suitable PD-L1 blocking antibodies are commercially available, and include anti-human CD274 (B7-H1, PD-L1) Antibody (clone 29E.2A3; Cat No. 329709; Biolegend), anti-human CD274 (B7-H1, PD-L1) Antibody (clone MIH3; Cat No. 374502; Biolegend), Anti-PD-L1 (CD274) Neutralizing Antibody (Cat No. 71213; BPS Bioscience), PD-L1/B7-H1/CD274 Blocking Antibody (clone R639; Cat No. 10084-R639; Sino Biological) and Human PD-L1/B7-H1 Antibody (Cat No. AF156; R and D Systems). Tumors cell were pretreated for 12, 24, 48 and 72 hours, to check for any PD-L1 induction or suppression over time by flow cytometry, and to define the time kinetics of JQ1-induced sensitization of tumors for recognition by TIL in a co-culture. We reasoned that recognition by autologous TIL should not be affected by PD-L1 blockade at any time point if ANRU tumor cells would be PD-L1 negative under all conditions.
# Herein, we addressed the question whether enhanced tumor recognition by autologous TIL after JQ1 treatment is directed at tumor-associated antigens or tumor-specific mutant antigens. Therefore we co-cultured ANRU cells with TIL sorted for their specifity towards either the tumor-associated antigen MART-1, or two different tumor-specific mutant antigens, designated ETV6.9 and NUP210.
# ROAL tumor cells = test: Co-culture of pretreated ROAL tumor cells with autologous TIL, IFNγ ELISA on supernatant; type: cell-based, human
# Protocol: as §3, §4
# as §5, with “To generate large T cell numbers, TIL were cultured for approximately 14 days in presence of autologous, irradiated feeders (40 Gy, TIL:feeder ratio 1:50-1:80) with 300 IU/mL IL-2 and 30 ng/mL anti-CD3 antibody (OKT3, Cilag, Zug, Switzerland). Cells were split or medium exchanged as necessary. Cultures were initiated in standing T75 flasks, but transferred to VueLife cell culture bags 1 week before harvest.” left out
# as §2
# KADA tumor cells = test: Co-culture of pretreated KADA tumor cells with autologous TIL, IFNγ ELISA on supernatant; type: cell-based, human
# Protocol: as §3, §4
# as §5, with “To generate large T cell numbers, TIL were cultured for approximately 14 days in presence of autologous, irradiated feeders (40 Gy, TIL:feeder ratio 1:50-1:80) with 300 IU/mL IL-2 and 30 ng/mL anti-CD3 antibody (OKT3, Cilag, Zug, Switzerland). Cells were split or medium exchanged as necessary. Cultures were initiated in standing T75 flasks, but transferred to VueLife cell culture bags 1 week before harvest.” left out
# as §2
# A375 tumor cells = test: Co-culture of pretreated A375 tumor cells with allogeneic T cells, IFNγ ELISA on supernatant; type: cell-based, human; conditions: A375, 72 hours JQ1 alone or in combination with IFNγ, 24 hours co-culture with allogeneic T cells
# PD-L1 = PD-L1 expression on tumor cells by flow cytometry; type: cell-based, human; conditions: 72 hours JQ1 and/or IFNγ
# Protocol: as §1, §2
# HLA class II = HLA class II expression on tumor cells by flow cytometry; type: cell-based, human
# IDO = IDO expression in tumor cells by flow cytometry; type: cell-based, human; conditions: early-passage melanoma cell lines, 72 hours JQ1 and/or IFNγ (FIG. 6)
# CD73 = CD73 expression on tumor cell lines by flow cytometry; type: cell-based; conditions: commercially available human tumor cell lines of various origins, 72 hours JQ1 and/or IFNγ (FIG. 7)
# [1] = tested on: antigen-presentation machinery (APM); test: mRNA expression of antigen-presentation machinery components by qPCR; type: cell-based, human
# Protocol: (§6) This was most apparent for HLA class I heavy chain, and overall was most clearly seen in A375 cells.
# Moreover, the presence of a HLA class I blocking antibody always fully abrogated T-cell recognition in co-cultures with pretreated tumors. […] Therefore, we studied mRNA and protein expression of well-known components of the antigen-presentation machinery (APM) after pretreatment with JQ1 alone and/or IFNγ.
# (§7) To study the time kinetics of these effects, the ANRU cell line was treated in the same way for 12, 24, 48 and 72 hours. […] This was most apparent for HLA class I heavy chain, and overall was most clearly seen in A375 cells.
# [2] = tested on: antigen-presentation machinery (APM); test: Western blot of antigen-presentation machinery components; type: cell-based, human; conditions: ANRU, ROAL, KADA and A375 cells, 72 hours JQ1 and/or IFNγ; most clearly in A375
# Protocol: as §6, §7
# STAT1 = STAT1 mRNA expression by RT-qPCR; type: cell-based, human; conditions: ANRU, ROAL and A375 cells, JQ1 with IFNγ
# Source text: (§8) (B) mRNA expression levels, measured by RT-qPCR, in ANRU, ROAL and A375 cells of STAT1 and JAK1, two proteins crucially involved in signaling downstream of IFNγ ligation to its cognate receptor.
# JAK1 = JAK1 mRNA expression by RT-qPCR; type: cell-based, human; conditions: ANRU, ROAL and A375 cells, JQ1 by itself and in combination
# Source text: as §8
# MYC = MYC expression by western blot; type: cell-based; conditions: 72 hours JQ1 alone or in combination with IFNγ
# [3] = ANRU, 72 hours pretreatment with the substance alone
# [4] = pretreatment with the substance alone
# [5] = ANRU, 72 hours, IFNγ in the presence of JQ1
compound,measurement,setting,value
COc1cc2c(cc1-c1c(C)noc1C)ncc1[nH]c(=O)n([C@H](C)c3ccccn3)c12 [I-BET151],HLA class I induction by IFNγ in combination with BETi,"HLA class I; A375, 72 hours",clearly increased
same,HLA class I induction by IFNγ in combination with BETi,"HLA class I; ROAL, 72 hours",clearly increased
"IFNγ: Interferon gamma (IFNγ), a known physiological cue for sensitization of target cells for T-cell recognition",Time kinetics of sensitization for recognition by TIL,ANRU tumor cells,did not lead to an improvement of tumor recognition
same,T-cell recognition by autologous TIL (IFNγ production in co-culture),ANRU tumor cells; [3],did not lead to any increases in T-cell recognition
same,Recognition by autologous TIL (IFNγ production in co-culture),ROAL tumor cells; [4],did not sensitize the cells
same,Recognition by autologous TIL (IFNγ production in co-culture),KADA tumor cells; [4],strongly sensitized
CCNC(=O)C[C@@H]1N=C(c2ccc(Cl)cc2)c2cc(OC)ccc2-n2c(C)nnc21 [I-BET762],HLA class I induction by IFNγ in combination with BETi,"HLA class I; A375, 72 hours",clearly increased
same,HLA class I induction by IFNγ in combination with BETi,"HLA class I; ROAL, 72 hours",clearly increased
Cc1sc2c(c1C)C(c1ccc(Cl)cc1)=N[C@@H](CC(=O)OC(C)(C)C)c1nnc(C)n1-2 [JQ1],Effect of PD-L1 blocking antibody on recognition of pretreated tumor cells by TIL,"ANRU tumor cells; ANRU pretreated 12, 24, 48 and 72 hours with JQ1 and/or IFNγ, 24 hours co-culture with or without PD-L1 blocking antibody",no effect of PD-L1 blockade was seen
same,Time kinetics of sensitization for recognition by TIL,ANRU tumor cells,most prominent after pretreatment with JQ1 alone for 72 hours
same,"Recognition by TIL sorted for MART-1, ETV6.9 and NUP210 specificity (IFNγ in co-culture supernatant)","ANRU tumor cells; ANRU, 0.4 μM JQ1 for 72 hours",improved recognition by all three TIL populations
same,T-cell recognition by autologous TIL (IFNγ production in co-culture),"ANRU tumor cells; ANRU, 72 hours pretreatment with JQ1 in combination with IFNγ",did not lead to any increases in T-cell recognition
same,T-cell recognition by autologous TIL (IFNγ production in co-culture),ANRU tumor cells; [3],dose-dependent increase in T-cell recognition
same,Recognition by autologous TIL (IFNγ production in co-culture),ROAL tumor cells; pretreatment with combination of JQ1 and IFNγ,significantly better and synergistically recognize
same,Recognition by autologous TIL (IFNγ production in co-culture),ROAL tumor cells; [4],did not sensitize
same,Recognition by autologous TIL (IFNγ production in co-culture),"KADA tumor cells; pretreatment with combination of IFNγ and JQ1, versus IFNγ",led to a reduction in tumor cell recognition
same,Recognition by autologous TIL (IFNγ production in co-culture),KADA tumor cells; [4],did not sensitize
same,T-cell recognition (IFNγ levels in co-culture supernatants) compared to DMSO-treated tumor cells,A375 tumor cells,strongly and significantly enhanced
same,PD-L1 expression,PD-L1; ANRU,wholly absent under all conditions
same,Constitutive and IFNγ-induced PD-L1 expression,PD-L1; KADA,strongly suppressed
same,PD-L1 expression,PD-L1; ROAL,marginal if not absent under all conditions
same,HLA class I induction by IFNγ,"HLA class I; A375, 72 hours, IFNγ in the presence of JQ1 (FIG. 1)",enhances HLA class I induction by IFNγ
same,HLA class I induction by IFNγ in combination with BETi,"HLA class I; A375, 72 hours",clear dose-dependent enhancement of HLA class I induction by IFNγ
same,HLA class I induction by IFNγ,"HLA class I; A549 (lung carcinoma), 72 hours JQ1 and/or IFNγ",enhances HLA class I induction by IFNγ
same,HLA class I induction by IFNγ,HLA class I; [5],consistent enhancement of HLA class I induction by IFNγ
same,HLA class I induction by IFNγ,"HLA class I; HCT116 (colon carcinoma), 72 hours JQ1 and/or IFNγ",enhances HLA class I induction by IFNγ
same,HLA class I induction by IFNγ,"HLA class I; HeLa (cervical carcinoma), 72 hours JQ1 and/or IFNγ",enhances HLA class I induction by IFNγ
same,HLA class I induction by IFNγ,"HLA class I; KADA, 72 hours, IFNγ in the presence of JQ1",reduced HLA class I induction by IFNγ
same,HLA class I induction by IFNγ,"HLA class I; ROAL, 72 hours, IFNγ in the presence of JQ1",significantly more strongly induced by IFNγ
same,HLA class I induction by IFNγ in combination with BETi,"HLA class I; ROAL, 72 hours",clear dose-dependent enhancement of HLA class I induction by IFNγ
same,HLA class II upregulation by IFNγ,HLA class II; [5],upregulation of HLA class II was actually suppressed
same,Constitutive and IFNγ-induced HLA class II expression,"HLA class II; early-passage melanoma cell lines, 72 hours JQ1 and/or IFNγ (FIG. 6)",clearly suppressed
same,IFNγ-induced IDO expression,IDO,suppresses IFNγ-induced IDO expression
same,CD73 induction by IFNγ,CD73,suppresses CD73 induction by IFNγ
same,"mRNA induction of APM components by IFNγ, time kinetics","[1]; ANRU, 12, 24, 48 and 72 hours, 0.4 μM JQ1 and/or 25 ng/ml IFNγ",potentiated the induction of APM components by IFNγ at all time points
same,mRNA induction of APM components by IFNγ,"[1]; ANRU, ROAL, KADA and A375 cells, 72 hours JQ1 and/or IFNγ, most pronounced for HLA class I, B2M, TAP1 and TAP2",potentiated their induction by IFNγ
same,"Protein level induction of APM components by IFNγ (TAP1, TAP2, Tapasin, HLA class I heavy chain, LMP2, LMP10)",[2],Enhanced induction of APM components by IFNγ
same,STAT1 mRNA induction by IFNγ,STAT1,strongly enhances induction of STAT1 by IFNγ
same,JAK1 mRNA expression,JAK1,consistently increases JAK1 expression
same,MYC expression,MYC,downregulated
